This note sets out measurements from US7183287B2, “Substituted pyrimidinones” (Pharmacia Corporation, priority 2003, dated 2007).

The assay has as its target T1, human p38 kinase alpha (Homo sapiens, UniProt Q16539).
T1 construct: The coding region of the human p38a cDNA is obtained by PCR-amplification from RNA isolated from the human monocyte cell line THP.1; made in house; host or cells: E. coli DH10B (plasmid pMON 35802, pGEX 2T)
In words: p38 kinase alpha in vitro assay (phosphorylation of PHAS-I with 32P-ATP or of EGFRP with 33P-ATP). The class given is biochemical. On the procedure:
The ability of compounds to inhibit human p38 kinase alpha is evaluated using two in vitro assay methods. In the first method, activated human p38 kinase alpha phosphorylates a biotinylated substrate, PHAS-I (phosphorylated heat and acid stable protein-insulin inducible), in the presence of gamma ^32P-ATP (^32P-ATP). PHAS-I is biotinylated prior to the assay and provides a means of capturing the substrate, which is phosphorylated during the assay. p38 Kinase is activated by MKK6. Compounds were tested in 10 fold serial dilutions over the range of 100 μM to 0.001 μM using 1% DMSO. Each concentration of inhibitor is tested in triplicate.
All reactions are carried out in 96 well polypropylene plates. Each reaction well contains 25 mM HEPES pH 7.5, 10 mM magnesium acetate and 50 μM unlabeled ATP. Activation of p38 is required to achieve sufficient signal in the assay. Biotinylated PHAS-I is used at 1–2 μg per 50 μl reaction volume, with a final concentration of 1.5 μM. Activated human p38 kinase alpha is used at 1 μg per 50 μl reaction volume representing a final concentration of 0.3 μM. Gamma ^32P-ATP is used to follow the phosphorylation of PHAS-I. ^32P-ATP has a specific activity of 3000 Ci/mmol and is used at 1.2 μCi per 50 μl reaction volume. The reaction proceeds either for one hour or overnight at 30° C.
Following incubation, 20 μl of reaction mixture is transferred to a high capacity streptavidin coated filter plate (SAM-streptavidin-matrix, Promega) prewetted with phosphate buffered saline. […] The plates are sealed and counted.
A second assay format is also employed that is based on p38 kinase alpha induced phosphorylation of EGFRP (epidermal growth factor receptor peptide, a 21 mer) in the presence ^33P-ATP. […] Compounds were evaluated in 50 μl reaction volumes in the presence of 25 mM Hepes pH 7.5, 10 mM magnesium acetate, 4% glycerol, 0.4% bovine serum albumin, 0.4 mM DTT, 50 μM unlabeled ATP, 25 μg EGFRP (200 μM), and 0.05 μCi ^33P-ATP. […] 150 μl of Microscint 40 is then added to each well of the Microlite plate, and the plate is sealed, mixed, and counted.

T1 sequence (Q16539 whole entry): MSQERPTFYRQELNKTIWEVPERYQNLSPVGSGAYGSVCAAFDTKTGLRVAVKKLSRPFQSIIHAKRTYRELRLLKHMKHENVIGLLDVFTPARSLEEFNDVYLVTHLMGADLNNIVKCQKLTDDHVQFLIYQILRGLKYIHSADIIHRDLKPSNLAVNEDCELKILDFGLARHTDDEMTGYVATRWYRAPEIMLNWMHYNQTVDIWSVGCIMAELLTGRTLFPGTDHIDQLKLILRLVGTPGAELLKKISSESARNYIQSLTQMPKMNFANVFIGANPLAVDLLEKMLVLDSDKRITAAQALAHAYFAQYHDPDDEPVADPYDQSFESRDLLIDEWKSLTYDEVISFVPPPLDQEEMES

For orientation: IC50 means the concentration that gives 50% inhibition. A higher IC50 goes with weaker potency in that assay. The compound `COC(=O)c1ccc(C)c(-n2c(C)nc(OCc3ccc(F)cc3F)c(Br)c2=O)c1` yielded an IC50 below 5 µM. `O=c1c(Br)c(OCc2ccccc2)ncn1Cc1ccccc1`: the IC50 was below 5 µM. The result for `CNC(=O)c1ccc(C)c(-n2c(C)nc(OCc3ccc(F)cc3F)c(Br)c2=O)c1` reads below 5 µM.
